Measured values from ChEMBL document CHEMBL1201862, “PubChem BioAssay data set” (2004).
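All cell lines were grown in 96-well plates and treated with compound for 48 hours. Here, GI50 denotes the concentration required for 50% inhibition of growth.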 Active and inactive are the calls of the source. No stated cut-off is given here; in the data, active = GI50 up to about 1.1 µM and inactive = higher.

Key:
Assay in all cases: growth of human tumour cells (NCI), 48 h
[1] = system: CCRF-CEM
[2] = system: TK-10
[3] = system: SNB-19
[4] = system: UACC-62
[5] = system: HOP-92
[6] = system: SK-MEL-2
[7] = system: COLO 205
[8] = system: OVCAR-5
[9] = system: NCI/ADR-RES
[10] = system: UO-31
[11] = system: MCF7
[12] = system: HCT-116
[13] = system: OVCAR-3
[14] = system: U-251
[15] = system: A498
[16] = system: LOX IMVI
[17] = system: NCI-H522
[18] = system: M14
[19] = system: OVCAR-4

SMILES	GI50 [1]	GI50 [2]	GI50 [3]	GI50 [4]	GI50 [5]	GI50 [6]	GI50 [7]	GI50 [8]	GI50 [9]	GI50 [10]	GI50 [11]	GI50 [12]	GI50 [13]	GI50 [14]	GI50 [15]	GI50 [16]	GI50 [17]	GI50 [18]	GI50 [19]
O=C1N/C(=N\N=C\c2ccccc2)C(c2ccccc2)O1 (stereo unspecified)	12.7 µM (inactive)	24 µM (inactive)	> 100 µM (inactive)	75.7 µM (inactive)	> 100 µM (inactive)	> 100 µM (inactive)	40.9 µM (inactive)	> 100 µM (inactive)	33.3 µM (inactive)	15.9 µM (inactive)	68.4 µM (inactive)	37.3 µM (inactive)	27.4 µM (inactive)	58.9 µM (inactive)	99.3 µM (inactive)	42.8 µM (inactive)	> 100 µM (inactive)	54 µM (inactive)	38.5 µM (inactive)
C=C1C(=O)O[C@H]2C/C(C)=C/CC/C(C)=C/CC[C@@](C)(O)[C@@H](I)C[C@@H]12	1.49 µM (inactive)	11.5 µM (inactive)	15 µM (inactive)	11.3 µM (inactive)	2.34 µM (inactive)	11.7 µM (inactive)	9.44 µM (inactive)	14.5 µM (inactive)	6.3 µM (inactive)	11.7 µM (inactive)	5.57 µM (inactive)	4.14 µM (inactive)	12.3 µM (inactive)	13.6 µM (inactive)	17.7 µM (inactive)	0.234 µM (active)	2.64 µM (inactive)	9.64 µM (inactive)	4.94 µM (inactive)
O=C(CN1C(=O)CC(c2ccccc2)(c2ccccc2)C1=O)N1CCN(CCO)CC1	> 100 µM (inactive)	> 100 µM (inactive)	> 100 µM (inactive)	> 100 µM (inactive)	> 100 µM (inactive)	> 100 µM (inactive)	> 100 µM (inactive)	> 100 µM (inactive)	> 100 µM (inactive)	> 100 µM (inactive)	> 100 µM (inactive)	> 100 µM (inactive)	> 100 µM (inactive)	> 100 µM (inactive)	> 100 µM (inactive)	> 100 µM (inactive)	> 100 µM (inactive)	> 100 µM (inactive)	> 100 µM (inactive)
O=C(c1ccccc1)C(Nc1ccc2ccccc2c1)c1ccccc1 (stereo unspecified)	13.7 µM (inactive)	29 µM (inactive)	34.7 µM (inactive)	18.2 µM (inactive)	41.7 µM (inactive)	14.2 µM (inactive)	17.6 µM (inactive)	> 52.7 µM (inactive)	25.2 µM (inactive)	> 65 µM (inactive)	12.7 µM (inactive)	15.7 µM (inactive)	13.9 µM (inactive)	21.9 µM (inactive)	21.3 µM (inactive)	35.3 µM (inactive)	6.98 µM (inactive)	31.3 µM (inactive)	38.1 µM (inactive)
COc1cc(C2c3cc4c(cc3OC(NNC(N)=O)C2C)OCO4)cc(OC)c1O (stereo unspecified)	2.5 µM (inactive)	13.8 µM (inactive)	7.29 µM (inactive)	0.512 µM (active)	15.3 µM (inactive)	6.18 µM (inactive)	2.59 µM (inactive)	6.59 µM (inactive)	21.3 µM (inactive)	8.04 µM (inactive)	1.64 µM (inactive)	1.58 µM (inactive)	1.03 µM (active)	2.1 µM (inactive)	3.41 µM (inactive)	4.06 µM (inactive)	0.285 µM (active)	2.73 µM (inactive)	> 43.9 µM (inactive)
O=C(O)c1cccc(S(=O)(=O)NCCO)c1	> 100 µM (inactive)	> 100 µM (inactive)	> 100 µM (inactive)	> 100 µM (inactive)	> 100 µM (inactive)	> 100 µM (inactive)	> 100 µM (inactive)	> 100 µM (inactive)	> 100 µM (inactive)	> 100 µM (inactive)	> 100 µM (inactive)	> 100 µM (inactive)	> 100 µM (inactive)	> 100 µM (inactive)	> 100 µM (inactive)	> 100 µM (inactive)	> 100 µM (inactive)	> 100 µM (inactive)	> 100 µM (inactive)
O=C(O)C1C2c3ccccc3C(c3ccccc32)C1C(=O)NCC1CC1 (stereo unspecified)	31.2 µM (inactive)	32.4 µM (inactive)	> 100 µM (inactive)	38.5 µM (inactive)	70.5 µM (inactive)	91.6 µM (inactive)	54.5 µM (inactive)	> 100 µM (inactive)	32.4 µM (inactive)	71.4 µM (inactive)	52.1 µM (inactive)	47.4 µM (inactive)	46.8 µM (inactive)	47 µM (inactive)	78 µM (inactive)	65.8 µM (inactive)	29.9 µM (inactive)	61.9 µM (inactive)	79.1 µM (inactive)
Clc1ccc(Cc2nc3cc(CCN4CCN(c5ccccc5)CC4)ccc3[nH]2)cc1	> 100 µM (inactive)	12.8 µM (inactive)	20.7 µM (inactive)	16 µM (inactive)	21 µM (inactive)	15 µM (inactive)	4.06 µM (inactive)	26.1 µM (inactive)	19.1 µM (inactive)	8.07 µM (inactive)	16 µM (inactive)	12 µM (inactive)	13 µM (inactive)	13 µM (inactive)	14.4 µM (inactive)	12.6 µM (inactive)	14.1 µM (inactive)	5.73 µM (inactive)	10.3 µM (inactive)
CNc1ccc(-c2nc3cc(C)ccc3o2)cc1	> 100 µM (inactive)	67.8 µM (inactive)	57.5 µM (inactive)	68.5 µM (inactive)	84.9 µM (inactive)	> 100 µM (inactive)	> 100 µM (inactive)	> 100 µM (inactive)	64.6 µM (inactive)	72.3 µM (inactive)	> 100 µM (inactive)	> 100 µM (inactive)	> 100 µM (inactive)	58.6 µM (inactive)	27.4 µM (inactive)	> 100 µM (inactive)	88.1 µM (inactive)	> 100 µM (inactive)	> 100 µM (inactive)
COC(=O)C1=C(C(=O)OC)C(C(=O)c2ccccc2)N2N=C(c3ccc(Cl)cc3)C=CC12 (stereo unspecified)	13.6 µM (inactive)	2.85 µM (inactive)	> 100 µM (inactive)	23.9 µM (inactive)	> 100 µM (inactive)	> 100 µM (inactive)	> 100 µM (inactive)	> 100 µM (inactive)	8.07 µM (inactive)	> 100 µM (inactive)	75.7 µM (inactive)	3.48 µM (inactive)	> 100 µM (inactive)	> 100 µM (inactive)	> 100 µM (inactive)	18.7 µM (inactive)	5.07 µM (inactive)	> 100 µM (inactive)	19.2 µM (inactive)
O=c1ccc2nc3ccc(O)cc3oc-2c1	34 µM (inactive)	> 72.1 µM (inactive)	38.6 µM (inactive)	2.7 µM (inactive)	> 100 µM (inactive)	12.8 µM (inactive)	6.25 µM (inactive)	> 100 µM (inactive)	19.5 µM (inactive)	5.75 µM (inactive)	5.07 µM (inactive)	16.4 µM (inactive)	10.5 µM (inactive)	26.8 µM (inactive)	35.2 µM (inactive)	2.75 µM (inactive)	5.32 µM (inactive)	4.3 µM (inactive)	> 68.1 µM (inactive)
COC1=C2CC(C)CC(OC)C(OC(=O)CN)[C@H](C)/C=C(\C)C(OC(N)=O)C(OC)/C=C\C=C(/C)C(=O)NC(=CC1=O)C2=O (stereo partly specified)	0.299 µM (active)	0.519 µM (active)	6.55 µM (inactive)	0.468 µM (active)	0.163 µM (active)	3.84 µM (inactive)	0.0562 µM (active)	1.03 µM (active)	9.62 µM (inactive)	0.716 µM (active)	0.339 µM (active)	0.498 µM (active)	0.481 µM (active)	1.58 µM (inactive)	12.1 µM (inactive)	0.284 µM (active)	0.159 µM (active)	0.451 µM (active)	0.708 µM (active)
CCCCCCCCCCCCC1NC(=N)NC2(CCCO2)C1C(=O)OC (stereo unspecified)	2.06 µM (inactive)	4.79 µM (inactive)	2.76 µM (inactive)	3.89 µM (inactive)	5.09 µM (inactive)	4.29 µM (inactive)	3.03 µM (inactive)	8.17 µM (inactive)	17.6 µM (inactive)	15.3 µM (inactive)	2.9 µM (inactive)	2.47 µM (inactive)	3.52 µM (inactive)	1.64 µM (inactive)	23.3 µM (inactive)	1.69 µM (inactive)	3.45 µM (inactive)	3.33 µM (inactive)	5.51 µM (inactive)
COc1cccc2c1CCc1c(-c3ccc(F)cc3)cc(-c3ccc4ccccc4n3)nc1-2	> 100 µM (inactive)	> 100 µM (inactive)	> 100 µM (inactive)	> 100 µM (inactive)	> 100 µM (inactive)	> 100 µM (inactive)	> 100 µM (inactive)	> 100 µM (inactive)	> 100 µM (inactive)	> 100 µM (inactive)	> 100 µM (inactive)	> 100 µM (inactive)	> 100 µM (inactive)	> 100 µM (inactive)	> 100 µM (inactive)	> 100 µM (inactive)	> 100 µM (inactive)	> 100 µM (inactive)	> 100 µM (inactive)
